Measured values taken from paper PMC4433340 (PLoS Neglected Tropical Diseases, 2015).

How the values were obtained:
Format in all cases: cell-based, human
[1] = tested on: E-selectin, ICAM-1 and VCAM-1 expression on T. cruzi-infected EA.hy926 and HUVEC cells; assay: Endothelial cell adhesion molecule surface expression by flow cytometry / immunofluorescence; details: EA.hy926
Procedure: Then, cells were infected with trypomastigotes at a MOI of 10 and incubated for 16 hours. Cells were detached with 1X EDTA-PBS at 0.5 mM. The harvested cells were washed with cold PBS and centrifuged at 800 x g for 5 minutes. Then, cells were washed with flow cytometry buffer three times. 100 μL of cell suspensions were incubated for 45 min at 4°C in the dark with mouse monoclonal anti- human E-selectin (5 μL undiluted), ICAM-1(3 μL undiluted), and VCAM-1 (1 μL undiluted) that were conjugated with PE, FITC and APC, respectively (BioLegend, USA). Cell suspensions were analyzed by flow cytometry using a FACSAria-III flow cytometer (BD Biosciences, USA). A homogeneous cell population was selected by size vs. granularity in log scale for these two conditions.
2x10^4 EA.hy926 cells/slide were seeded in Lab-Tek II Chamber Slide^TM (ThermoScientific, USA) and allowed to adhere overnight. […] After 16 hours of infection, cells were fixed in 4% formaldehyde–0.1 M phosphate buffer (pH 7.3) for 10 min. Cells were blocked with 3% bovine serum albumin for 1 hour. Then, cells were incubated with monoclonal antibodies against E-selectin (1:100), VCAM-1 (1:250) and ICAM-1 (1:100) (from Abcam, UK) overnight at 4°C. The samples were washed with PBS and incubated with anti-rabbit IgG that had been conjugated with fluorescein (1:100) from Sigma-Aldrich for 1 h. Finally, nuclei were stained with DAPI for 5 minutes and mounted with Dako Fluorescence Mounting (Dako, USA). The cells were photographed using a Nikon Eclipse 400 fluorescence microscope (Nikon, Japan), and images were analyzed by mean intensity using ImageJ software (ImageJ 1.47v).

[2] = tested on: NF-κB pathway (p-IKK, p-IκB) in T. cruzi-infected EA.hy926 cells; assay: IKK and IκB phosphorylation by Western blot; details: exogenous 15-epi-LXA4 for 24 hours before T. cruzi 1 hour
Procedure: 5x10^5 endothelial cells were rinsed once with PBS and scraped. Proteins were extracted into 100 μL RIPA buffer plus a protease and phosphatase inhibitor cocktail (Radio-Immunoprecipitation Assay; Millipore Corporation, USA) at 4°C. Total protein was quantified with the Lowry assay. Samples in loading buffer (10% SDS, 50% glycerol, 0.5 M Tris, 0.1% bromophenol blue, and 1 M dithiothreitol, pH 6.8) were electrophoretically separated by 10% SDS-PAGE and transferred to a nitrocellulose membrane. Nitrocellulose membranes were incubated with blocking solution (5% w/v nonfat dry milk, 0.1% Tween-20 in Tris-buffered saline) at room temperature for 1 hour. Then, the membranes were incubated at 4°C overnight with 1 mL solution of primary antibodies against E-selectin (1:1000) and α-Tubulin (1:10.000) from Sigma-Aldrich, ICAM-1 (1:2000) and VCAM-1 (1:1000) from Abcam, 7 ml solution of p-IKK (1:1000), IKK (1:1000), p-IκB (1:1000) and IκB (1:1000) from Cell signaling (Cell Signaling Technologies, USA). Bound antibodies were detected with horseradish peroxidase-conjugated secondary antibodies and visualized by Lumminata forte (Millipore). The nitrocellulose was stripped between reprobes using Mild stripping (Millipore) for 10 minutes. Developed films were scanned, and band densitometry was analyzed using ImageJ software (ImageJ 1.47v).

[3] = tested on: NF-κB p65 in T. cruzi-infected EA.hy926 cells; assay: Nuclear p65 localization by confocal microscopy; details: 100 nM 15-epi-LXA4 before T. cruzi 1 hour
Procedure: 2x10^4 EA.hy926 cells were seeded in Lab-Tek II Chamber Slides^TM for 12 hours. Cells were fixed in 3.7% formaldehyde–0.1 M phosphate buffer (pH 7.3) for 10 min. They were then washed with cytoskeletal buffer followed by permeabilization for 5 min with Triton-X100 0.5%. Cells were blocked with 3% bovine serum albumin for 1 hour. […] The samples were washed with PBS and incubated with anti-rabbit IgG conjugated with fluorescein (1:100) from Sigma-Aldrich for 1 hour. Finally, nuclei were stained with DAPI for 5 minutes and mounted in Dako fluorescence mounting media. The cells were photographed and ten pictures per well were obtained; images were analyzed using ImageJ software (ImageJ 1.47v).

SMILES | Endothelial adhesion molecule expression ([1]; 1 and 10 nM 15-epi-LXA4 for 24 hours before 16 hours infection) | IKK-IκB pathway activity [2] | Nuclear p65 migration [3] | ICAM expression in presence of simvastatin plus 5-lipoxygenase inhibitor ([1]; 5 μM simvastatin with AA-861 (50 μM) for 24 hours before 16 hours infection)
CCCCC[C@@H](O)/C=C/C=C\C=C\C=C\[C@@H](O)[C@@H](O)CCCC(=O)O [15-epi-LXA4, 15-epi-lipoxin A4] | reduced endothelial adhesion molecule expression | decreased IKK-IκB pathway activity in a dose-dependent fashion | decreased nuclear p65 migration | –
CC1=C(C)C(=O)C(CCCCC#CCCCC#CCO)=C(C)C1=O [AA-861, 2-(12-hydroxydodeca-5,10-diynyl)-3,5,6-trimethyl-p-benzoquinone] | – | – | – | ICAM expression was restored
